Experiments:
[1] = tested on: Human colon cancer HCT-116 cell lines; assay: Antitumor effect on tumor cells transplanted into mice 1 (HCT-116, tumor volume); assay type: in vivo, BALB/cAJcl-nu/nu mice; conditions: HCT-116 in nude mice; for RTV15 comparison with control: Dunnett's test
Method: (§1) Human colon cancer HCT-116 cell lines were washed in PBS and suspended at a concentration of 4×10^7 cells/mL. 0.1 mL of this cell suspension was subcutaneously implanted in the right chest of 6-week-old BALB/cAJcl-nu/nu mice (produced by CLEA Japan, Inc.).
(§2) The length and the width of the implanted tumor and the body weight were measured. The tumor volume (TV) was calculated using the following equation (equation D). TV (mm3)=(length×width^2)/2, wherein the unit of length and width is mm (equation D).
(§3) When the TV reached 100 to 300 mm3, the animals were assigned to each group in accordance with a stratified randomization procedure. The day was considered day 1, the TV on the day was considered TV1, and the body weight on the day was considered BW1.
(§4) A required amount of the test compound was weighed to prepare an administration solution.
(§5) Thereafter, the length and the width of the tumor and the body weight (BWn) on day n were measured over time in the same manner, and the TVn of each mouse was calculated. Further, the relative tumor volume (RTVn) was calculated based on the TVn of each mouse using the following equation (equation E); the treatment/control (T/C) value (%) was calculated based on the mean RTVn of each drug administration group using the following equation (equation F); and the weight change rate (BWCn) was calculated using the following equation (equation G). RTVn=TVn/TV1 (equation E) T/Cn(%)=(mean RTV of each drug administration group on the last day of the test)/(mean RTV of the control group on the last day of the test)×100 (equation F) BWCn (%)=(BWn−BW1)/BW1×100 (equation G) FIGS. 1 and 2, and Table 21 below show the results.

[2] = Body weight change, antitumor test 1 (HCT-116 mice); assay type: in vivo, BALB/cAJcl-nu/nu mice
Method: as §1, §2, §3, §4
as §5, with “RTVn=TVn/TV1 (equation E) T/Cn(%)=(mean RTV of each drug administration group on the last day of the test)/(mean RTV of the control group on the last day of the test)×100 (equation F) BWCn (%)=(BWn−BW1)/BW1×100 (equation G) FIGS. 1 and 2, and Table 21 below show the results.” left out

[3] = biological target: NAE (heterodimer of APPBP1 and UBA3) (Homo sapiens (Human), UniProt Q8TBC4); assay: Nedd8 conjugation inhibitory activity (AlphaScreen assay); assay type: biochemical; conditions: purified NAE, GST-UBC12, Biotin-Nedd8, ATP
[4] = tested on: human acute lymphoblastic leukemia (ALL) CCRF-CEM cell lines; assay: Antitumor effect on tumor cells transplanted into mice 3 (CCRF-CEM, tumor volume); assay type: in vivo, BALB/cAJcl-nu/nu mice (nude mice); conditions: Dunnett's test; CCRF-CEM in nude mice; compound hydrochlorides, intravenous
Method: as §2, §5
(§6) The tumor growth inhibitory effects on human tumors were evaluated as in Test Example 5, except that the compound hydrochloride obtained in Example 122, the compound hydrochloride (Example 64), and human acute lymphoblastic leukemia (ALL) CCRF-CEM cell lines were used, and the animals were assigned to each group in accordance with a stratified randomization procedure when the TV reached 140 to 380 mm3.
At this time, the cell lines were washed in PBS, and suspended in 50% PBS and 50% Matrigel basement membrane matrix (#356237; produced by BD Biosciences) at a concentration of 1×10^8 cells/mL. 0.1 mL of this cell suspension was subcutaneously implanted to the right chest of 6-week-old BALB/cAJcl-nu/nu mice (nude mice) (produced by CLEA Japan, Inc.). The compound hydrochloride (Example 122) was intravenously administered in an amount of 5 mL per 1 kg of body weight on days 1 and 8, and the compound hydrochloride (Example 133) was intravenously administered in an amount of 5 mL per 1 kg of body weight on days 1 and 8.

[5] = biological target: carbonic anhydrase II (Homo sapiens (Human), UniProt P00918); assay: Carbonic anhydrase II enzyme activity inhibition (4-NPA esterase activity); assay type: biochemical
[6] = tested on: human acute T lymphoblastic leukemia CCRF-CEM cell lines; assay: Cell growth inhibition 1 (CellTiter-Glo), CCRF-CEM; assay type: cell-based; conditions: 72 hours culture with compound
[7] = tested on: human acute leukemia MV-4-11 cell line; assay: Cell growth inhibition 2 (CellTiter-Glo), MV-4-11; assay type: cell-based; conditions: MV4-11, 384-well plate
[8] = tested on: human osteo- and soft tissue sarcoma SJCRH30 cell line; assay: Cell growth inhibition 2 (CellTiter-Glo), SJCRH30; assay type: cell-based; conditions: 384-well plate
[9] = tested on: human diffuse large B-cell lymphoma DB cell line; assay: Cell growth inhibition 2 (CellTiter-Glo), DB; assay type: cell-based; conditions: 384-well plate
[10] = tested on: human skin cancer A-431 cell line; assay: Cell growth inhibition 2 (CellTiter-Glo), A-431; assay type: cell-based; conditions: 384-well plate
[11] = tested on: human multiple myeloma U266B1 cell line; assay: Cell growth inhibition 2 (CellTiter-Glo), U266B1; assay type: cell-based; conditions: 384-well plate
[12] = tested on: human pancreatic cancer Capan-1 cell line; assay: Cell growth inhibition 2 (CellTiter-Glo), Capan-1; assay type: cell-based; conditions: 384-well plate
[13] = tested on: Human colon cancer HCT-116 cell lines; assay: Antitumor effect on tumor cells transplanted into mice 2 (HCT-116, tumor volume); assay type: in vivo, BALB/cAJcl-nu/nu mice; conditions: Dunnett's test; HCT-116 in nude mice; hydrochloride compound of Example 55
[14] = Body weight change, antitumor test 3 (CCRF-CEM mice); assay type: in vivo, BALB/cAJcl-nu/nu mice (nude mice); conditions: for change of the body weight compared with the control: CCRF-CEM nude mice, Test Example 7
Method: as §2, §5, §6
At this time, the cell lines were washed in PBS, and suspended in 50% PBS and 50% Matrigel basement membrane matrix (#356237; produced by BD Biosciences) at a concentration of 1×10^8 cells/mL. 0.1 mL of this cell suspension was subcutaneously implanted to the right chest of 6-week-old BALB/cAJcl-nu/nu mice (nude mice) (produced by CLEA Japan, Inc.). […]

[15] = tested on: human prostate cancer LNCAP.FGC cell line; assay: Cell growth inhibition 2 (CellTiter-Glo), LNCAP.FGC; assay type: cell-based; conditions: 384-well plate
[16] = tested on: human lung cancer A-427 cell line; assay: Cell growth inhibition 2 (CellTiter-Glo), A-427; assay type: cell-based; conditions: 384-well plate
[17] = tested on: human colon cancer HCT116 cell line; assay: Cell growth inhibition 2 (CellTiter-Glo), HCT116; assay type: cell-based; conditions: HCT-116, 384-well plate
[18] = tested on: human breast cancer MDA-MB-453 cell line; assay: Cell growth inhibition 2 (CellTiter-Glo), MDA-MB-453; assay type: cell-based; conditions: 384-well plate
[19] = Body weight change, antitumor test 2 (HCT-116 mice); assay type: in vivo, BALB/cAJcl-nu/nu mice; conditions: HCT-116 xenograft in nude mice, 120 mg/kg/day, administration days 1, 4, 8, 11, day 15

Sequence of NAE (heterodimer of APPBP1 and UBA3) (Q8TBC4 whole entry): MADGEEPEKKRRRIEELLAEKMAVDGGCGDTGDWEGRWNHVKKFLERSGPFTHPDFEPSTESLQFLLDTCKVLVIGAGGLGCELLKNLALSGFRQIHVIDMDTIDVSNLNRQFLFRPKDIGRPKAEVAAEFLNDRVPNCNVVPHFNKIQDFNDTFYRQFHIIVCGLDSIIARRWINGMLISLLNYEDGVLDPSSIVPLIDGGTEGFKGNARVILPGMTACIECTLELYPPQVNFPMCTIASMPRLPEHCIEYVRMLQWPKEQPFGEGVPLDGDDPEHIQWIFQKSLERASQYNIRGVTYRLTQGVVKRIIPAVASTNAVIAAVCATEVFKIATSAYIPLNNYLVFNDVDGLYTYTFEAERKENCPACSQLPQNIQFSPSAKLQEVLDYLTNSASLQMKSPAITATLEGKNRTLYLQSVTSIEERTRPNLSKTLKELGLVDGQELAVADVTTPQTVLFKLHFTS
Sequence of NAE (heterodimer of APPBP1 and UBA3) (Q13564 whole entry partner): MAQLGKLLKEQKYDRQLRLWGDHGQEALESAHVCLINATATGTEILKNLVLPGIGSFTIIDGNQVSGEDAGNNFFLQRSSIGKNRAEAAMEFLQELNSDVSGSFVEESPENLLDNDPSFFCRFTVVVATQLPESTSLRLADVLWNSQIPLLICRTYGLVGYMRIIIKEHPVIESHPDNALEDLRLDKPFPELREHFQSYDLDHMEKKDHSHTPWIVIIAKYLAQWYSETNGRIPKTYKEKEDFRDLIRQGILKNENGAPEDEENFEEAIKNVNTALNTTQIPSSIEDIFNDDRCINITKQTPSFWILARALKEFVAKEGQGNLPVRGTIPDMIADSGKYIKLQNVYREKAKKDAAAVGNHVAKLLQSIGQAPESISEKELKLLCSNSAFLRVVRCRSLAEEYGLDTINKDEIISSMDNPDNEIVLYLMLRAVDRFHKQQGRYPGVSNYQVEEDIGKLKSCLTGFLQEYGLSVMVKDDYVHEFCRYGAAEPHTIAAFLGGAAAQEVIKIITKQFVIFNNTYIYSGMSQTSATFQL

## Nc1ncnc2c1c(C#Cc1c(F)cccc1F)cn2[C@@H]1O[C@H](CNS(N)(=O)=O)[C@@H](O)[C@H]1O [Example 1, 4-Amino-5-[2-(2,6-difluorophenyl)ethynyl]-7-[(2R,3R,4S,5R)-3,4-dihydroxy-5-[(sulfamoylamino)methyl]tetrahydrofuran-2-yl]pyrrolo[2,3-d]pyrimidine]
[1]; Aspin-Welch's t-test
  RTV comparison with Comparative Example: significantly lower than that of the Comparative Example
[1]
  RTV15 comparison with control: significantly lower than that of the control
[2]; HCT-116 nude mice, Test Example 5
  change of the body weight compared with the control: within an acceptable degree

## Nc1ncnc2c1c(C#Cc1c(F)cccc1F)cn2[C@@H]1C=C(CNS(N)(=O)=O)[C@@H](O)[C@H]1O [Example 128, 4-Amino-5-[2-(2,6-difluorophenyl)ethynyl]-7-[(1R,4R,5S)-4,5-dihydroxy-3-[(sulfamoylamino)methyl]cyclopent-2-en-1-yl]pyrrolo[2,3-d]pyrimidine]
[3]
  IC50: 0.0033 µM

## Nc1ncnc2c1c(C#Cc1c(F)cc(N3CC[C@H](F)C3)cc1F)cn2[C@@H]1C[C@H](CNS(N)(=O)=O)[C@@H](O)[C@H]1O [Example 116, 4-Amino-5-[2-[2,6-difluoro-4-[(3S)-3-fluoropyrrolidin-1-yl]phenyl]ethynyl]-7-[(1R,2S,3R,4R)-2,3-dihydroxy-4-[(sulfamoylamino)methyl]cyclopentyl]pyrrolo[2,3-d]pyrimidine]
[3]
  IC50: 0.0051 µM

## CN1CCOc2c1ccc(F)c2C#Cc1cn([C@@H]2O[C@H](CNS(N)(=O)=O)[C@@H](O)[C@H]2O)c2ncnc(N)c12 [Example 64, 8-[2-[4-Amino-7-[(2R,3R,4S,5R)-3,4-dihydroxy-5-[(sulfamoylamino)methyl]tetrahydrofuran-2-yl]pyrrolo[2,3-d]pyrimidin-5-yl]ethynyl]-7-fluoro-4-methyl-2,3-dihydro-1,4-benzoxazine]
[4]
  RTV comparison with Comparative Example: significantly lower than that of the Comparative Example
  RTV comparison with control on day 15: significantly lower than that of the control

## NS(=O)(=O)OC[C@@H]1C[C@@H](n2ccc3c(N[C@H]4CCc5ccccc54)ncnc32)C[C@@H]1O [Comparative Example, N-[(1S)-1-indanyl]-7-[(1R)-3α-hydroxy-4α-(sulfamoyloxymethyl)cyclopentyl]-7H-pyrrolo[2,3-d]pyrimidin-4-amine]
[5]; 4-nitrophenyl acetate esterase activity, absorbance at 405 nm
  IC50: 0.012 µM
[5]; summary in words of Table 18
  inhibitory activity against carbonic anhydrase II: exhibited inhibitory activity against carbonic anhydrase II
[6]
  IC50: 89 nM
[7]
  IC50: 110 nM
[8]
  IC50: > 10000 nM
[1]
  RTV15 comparison with control: significantly lower than that of the control
[9]
  IC50: 560 nM
[10]
  IC50: 750 nM
[11]
  IC50: 1400 nM
[12]
  IC50: 1500 nM
[2]; body weight change rate day 15, dose 120 mg/kg/day intravenous, administration day 1, 4, 8, 11
  BWC15 (%) Mean ± SD: −14.3 ± 5.1%
[13]
  RTV15 comparison with control: significantly lower than that of the control
[14]; CCRF-CEM xenograft in nude mice, 120 mg/kg/day i.v., administration days 1, 4, 8, 11, day 15
  BWC15 (%) Mean ± SD: 6.1 ± 2.6%
[15]
  IC50: 410 nM
[16]
  IC50: 180 nM
[17]
  IC50: 89 nM
[18]
  IC50: 1900 nM
[4]
  RTV comparison with control on day 15: significantly lower than that of the control
[19]
  BWC15 (%) Mean ± SD: −8.4 ± 3.2%

## Nc1ncnc2c1c(C#Cc1cccc3ccccc13)cn2[C@@H]1O[C@H](COS(N)(=O)=O)[C@@H](O)[C@H]1O [Example 133, [(2R,3S,4R,5R)-5-[4-Amino-5-[2-(1-naphthyl)ethynyl]pyrrolo[2,3-d]pyrimidin-7-yl]-3,4-dihydroxy-tetrahydrofuran-2-yl]methyl sulfamate]
[14]
  change of the body weight compared with the control: almost the same as that of the control
[4]
  RTV comparison with control on day 15: significantly lower than that of the control

## Nc1ncnc2c1c(C#Cc1c(F)cc(N3CC[C@H](O)C3)cc1F)cn2[C@@H]1C[C@H](CNS(N)(=O)=O)[C@@H](O)[C@H]1O [Example 121, 4-Amino-5-[2-[2,6-difluoro-4-[(3S)-3-hydroxypyrrolidin-1-yl]phenyl]ethynyl]-7-[(1R,2S,3R,4R)-2,3-dihydroxy-4-[(sulfamoylamino)methyl]cyclopentyl]pyrrolo[2,3-d]pyrimidine]
[3]
  IC50: 0.0062 µM

## Nc1ncnc2c1c(C#Cc1c(F)cc(N3CC[C@@H](O)C3)cc1F)cn2[C@@H]1C[C@H](CNS(N)(=O)=O)[C@@H](O)[C@H]1O [Example 120, 4-Amino-5-[2-[2,6-difluoro-4-[(3R)-3-hydroxypyrrolidin-1-yl]phenyl]ethynyl]-7-[(1R,2S,3R,4R)-2,3-dihydroxy-4-[(sulfamoylamino)methyl]cyclopentyl]pyrrolo[2,3-d]pyrimidine]
[14]
  change of the body weight compared with the control: almost the same as that of the control
[4]
  RTV comparison with control on day 15: significantly lower than that of the control

## CN1CCOc2c1ccc(F)c2C#Cc1cn([C@@H]2C[C@H](CNS(N)(=O)=O)[C@@H](O)[C@H]2O)c2ncnc(N)c12 [Example 122, 8-[2-[4-amino-7-[(1R,2S,3R,4R)-2,3-dihydroxy-4-[(sulfamoylamino)methyl]cyclopentyl]pyrrolo[2,3-d]pyrimidin-5-yl]ethynyl]-7-fluoro-4-methyl-2,3-dihydro-1,4-benzoxazine]
[4]
  RTV comparison with Comparative Example: significantly lower than that of the Comparative Example
  RTV comparison with control on day 15: significantly lower than that of the control

— patent US10174040B2, “Pyrrolopyrimidine compound or salt thereof and compositions containing the pyrrolopyrimidine compound or salt thereof” (TAIHO PHARMACEUTICAL CO., LTD., priority 2014, dated 2019)
